Source: ChEMBL document CHEMBL1201862, “PubChem BioAssay data set” (2004)
Calls of active or inactive are those of the source.

Experiments:
Prothrombin = Prothrombin (Bos taurus, UniProt P00735); experiment: thrombin inhibition, dose response, biochemical, fluorescence polarization, uHTS hits (AID 602369); assay type: functional
[1] = target: 72 kDa type IV collagenase (Homo sapiens, UniProt P08253); experiment: Dose Response validation of uHTS RPN11 inhibitor hits using a MMP-2 Fluorescence assay.; assay type: functional
Sequence of 72 kDa type IV collagenase (P08253 whole entry): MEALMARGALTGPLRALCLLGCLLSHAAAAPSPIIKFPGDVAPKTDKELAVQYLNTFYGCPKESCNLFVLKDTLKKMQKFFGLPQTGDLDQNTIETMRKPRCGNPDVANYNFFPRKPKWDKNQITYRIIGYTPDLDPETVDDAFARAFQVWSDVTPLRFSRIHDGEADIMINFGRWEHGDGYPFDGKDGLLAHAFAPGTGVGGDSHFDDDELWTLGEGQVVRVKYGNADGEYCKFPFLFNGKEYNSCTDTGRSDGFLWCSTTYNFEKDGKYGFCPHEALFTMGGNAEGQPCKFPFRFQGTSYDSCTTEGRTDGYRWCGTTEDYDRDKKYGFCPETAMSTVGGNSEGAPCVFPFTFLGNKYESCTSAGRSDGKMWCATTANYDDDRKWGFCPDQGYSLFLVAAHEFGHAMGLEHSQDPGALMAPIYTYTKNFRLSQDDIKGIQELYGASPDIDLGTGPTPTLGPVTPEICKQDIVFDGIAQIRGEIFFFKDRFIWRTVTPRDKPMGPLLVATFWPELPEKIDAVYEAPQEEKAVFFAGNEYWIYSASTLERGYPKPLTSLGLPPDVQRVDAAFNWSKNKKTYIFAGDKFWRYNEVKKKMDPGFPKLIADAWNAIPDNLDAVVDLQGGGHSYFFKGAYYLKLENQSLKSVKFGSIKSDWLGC

[2] = growth suppression of PTEN-null colon cells, dose response, cell-based, HCT116 PTEN knockout (AID 1047); assay type: functional;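 further: HCT116 colon tumor cells with PTEN knocked out; cells exposed to compound for 60 hours before readout; potency for loss of cell viability measured by luminescence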
[3] = target: T1, Apoptotic protease-activating factor 1 (Homo sapiens, UniProt O14727); assay type: functional
T1 sequence (O14727 whole entry): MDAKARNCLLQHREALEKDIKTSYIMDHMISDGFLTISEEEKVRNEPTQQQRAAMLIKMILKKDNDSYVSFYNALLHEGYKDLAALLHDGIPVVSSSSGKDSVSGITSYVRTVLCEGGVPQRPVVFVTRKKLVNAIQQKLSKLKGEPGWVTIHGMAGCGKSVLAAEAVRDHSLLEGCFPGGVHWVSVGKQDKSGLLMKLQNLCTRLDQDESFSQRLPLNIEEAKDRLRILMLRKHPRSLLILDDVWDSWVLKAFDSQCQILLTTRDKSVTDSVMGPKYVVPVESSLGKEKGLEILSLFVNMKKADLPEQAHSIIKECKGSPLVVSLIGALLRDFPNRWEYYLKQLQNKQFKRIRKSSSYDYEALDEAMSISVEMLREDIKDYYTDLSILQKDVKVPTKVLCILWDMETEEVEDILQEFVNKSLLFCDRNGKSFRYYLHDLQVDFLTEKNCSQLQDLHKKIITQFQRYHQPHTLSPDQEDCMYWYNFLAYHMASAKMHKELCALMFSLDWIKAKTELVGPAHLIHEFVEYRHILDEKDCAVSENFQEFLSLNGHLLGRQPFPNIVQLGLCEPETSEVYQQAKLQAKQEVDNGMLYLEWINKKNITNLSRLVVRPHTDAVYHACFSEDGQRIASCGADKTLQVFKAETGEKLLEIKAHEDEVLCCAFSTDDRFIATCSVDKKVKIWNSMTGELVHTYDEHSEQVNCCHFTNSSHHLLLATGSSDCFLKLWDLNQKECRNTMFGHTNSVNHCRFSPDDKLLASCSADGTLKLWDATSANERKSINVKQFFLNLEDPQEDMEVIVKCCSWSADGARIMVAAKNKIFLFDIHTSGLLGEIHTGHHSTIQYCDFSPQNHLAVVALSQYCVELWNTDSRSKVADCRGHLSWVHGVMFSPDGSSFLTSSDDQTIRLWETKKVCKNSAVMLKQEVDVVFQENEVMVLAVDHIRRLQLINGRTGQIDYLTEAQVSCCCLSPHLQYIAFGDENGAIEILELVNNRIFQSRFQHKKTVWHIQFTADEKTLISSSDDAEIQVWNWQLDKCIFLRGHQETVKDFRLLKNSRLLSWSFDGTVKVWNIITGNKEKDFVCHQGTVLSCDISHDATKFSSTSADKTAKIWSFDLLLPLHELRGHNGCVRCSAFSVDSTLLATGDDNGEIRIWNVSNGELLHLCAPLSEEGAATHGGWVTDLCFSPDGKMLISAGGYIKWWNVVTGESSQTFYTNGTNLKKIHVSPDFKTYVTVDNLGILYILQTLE

[4] = growth suppression of beta-catenin-knockout colon cells, dose response, cell-based, HCT116, human colon tumor (AID 1045); assay type: functional;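 further: HCT116 colon tumor cells with beta catenin knocked out; cells exposed to compound for 60 hours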
[5] = target: 26S proteasome non-ATPase regulatory subunit 14 (Homo sapiens, UniProt O00487); experiment: inhibition of proteasome subunit RPN11 – biochemical, fluorescence polarization, uHTS hits, confirmation (AID 602368); assay type: functional
Sequence of 26S proteasome non-ATPase regulatory subunit 14 (O00487 whole entry): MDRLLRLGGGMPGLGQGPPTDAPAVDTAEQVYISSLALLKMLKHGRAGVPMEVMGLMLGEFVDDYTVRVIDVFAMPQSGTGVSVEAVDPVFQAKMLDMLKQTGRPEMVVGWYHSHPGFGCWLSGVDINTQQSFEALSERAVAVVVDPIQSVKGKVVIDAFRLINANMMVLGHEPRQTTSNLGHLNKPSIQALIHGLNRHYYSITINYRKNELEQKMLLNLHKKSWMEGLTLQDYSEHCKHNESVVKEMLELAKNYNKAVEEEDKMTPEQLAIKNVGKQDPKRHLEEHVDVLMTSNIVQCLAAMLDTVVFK

[6] = target: Protein-tyrosine kinase 2-beta (Homo sapiens, UniProt Q14289);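 further: potency of inhibitors of PYK2 kinase phosphorylation of poly-GT substrate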
Sequence of Protein-tyrosine kinase 2-beta (Q14289 whole entry): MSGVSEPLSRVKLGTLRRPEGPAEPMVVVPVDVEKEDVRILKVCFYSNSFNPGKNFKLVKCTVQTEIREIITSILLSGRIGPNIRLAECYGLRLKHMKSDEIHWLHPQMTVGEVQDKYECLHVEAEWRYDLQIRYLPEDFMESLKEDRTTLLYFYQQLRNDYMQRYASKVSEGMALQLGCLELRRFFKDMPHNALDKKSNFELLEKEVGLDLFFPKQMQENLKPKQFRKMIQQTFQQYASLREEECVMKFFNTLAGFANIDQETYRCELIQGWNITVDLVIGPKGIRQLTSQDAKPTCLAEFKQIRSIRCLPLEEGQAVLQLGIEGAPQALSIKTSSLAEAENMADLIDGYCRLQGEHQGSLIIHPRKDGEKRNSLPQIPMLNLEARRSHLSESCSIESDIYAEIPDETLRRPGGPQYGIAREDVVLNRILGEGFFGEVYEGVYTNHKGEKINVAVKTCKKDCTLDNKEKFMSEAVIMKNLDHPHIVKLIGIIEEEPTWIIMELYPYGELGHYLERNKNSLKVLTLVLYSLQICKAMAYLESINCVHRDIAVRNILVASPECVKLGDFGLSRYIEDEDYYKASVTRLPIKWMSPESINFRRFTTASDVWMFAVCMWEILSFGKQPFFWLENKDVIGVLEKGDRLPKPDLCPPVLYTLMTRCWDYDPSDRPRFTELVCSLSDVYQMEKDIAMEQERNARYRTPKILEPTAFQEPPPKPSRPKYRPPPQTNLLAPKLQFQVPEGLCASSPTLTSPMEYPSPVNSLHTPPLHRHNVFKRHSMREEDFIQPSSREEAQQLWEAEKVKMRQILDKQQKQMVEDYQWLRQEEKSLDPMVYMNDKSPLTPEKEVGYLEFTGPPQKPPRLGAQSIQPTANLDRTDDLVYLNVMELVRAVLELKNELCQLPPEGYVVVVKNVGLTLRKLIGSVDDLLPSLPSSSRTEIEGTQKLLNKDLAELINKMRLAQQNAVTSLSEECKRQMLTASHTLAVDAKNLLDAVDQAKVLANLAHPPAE

[7] = Luminescence Cell-Based Dose Retest to Confirm Inhibitors of Cancer Stem Cells. [Related pubchem assays (depositor defined):AID2717, AID2721]; assay type: functional; conditions: Homo sapiens
A-375 = experiment: A375 melanoma cell viability reduction, dose response, counter-screen for MITF modulator project, cherry-pick samples, set 2 (AID 540335); assay type: functional, cell-based; conditions: Homo sapiens
[8] = target: T2, Microphthalmia-associated transcription factor (Homo sapiens, UniProt O75030); experiment: TRPM1 promoter luciferase signal decrease, dose response, MITF inhibitor project, cell-based, SK-MEL-5, cherry-picked, set 3 (AID 493073); assay type: functional
T2 sequence (O75030 whole entry): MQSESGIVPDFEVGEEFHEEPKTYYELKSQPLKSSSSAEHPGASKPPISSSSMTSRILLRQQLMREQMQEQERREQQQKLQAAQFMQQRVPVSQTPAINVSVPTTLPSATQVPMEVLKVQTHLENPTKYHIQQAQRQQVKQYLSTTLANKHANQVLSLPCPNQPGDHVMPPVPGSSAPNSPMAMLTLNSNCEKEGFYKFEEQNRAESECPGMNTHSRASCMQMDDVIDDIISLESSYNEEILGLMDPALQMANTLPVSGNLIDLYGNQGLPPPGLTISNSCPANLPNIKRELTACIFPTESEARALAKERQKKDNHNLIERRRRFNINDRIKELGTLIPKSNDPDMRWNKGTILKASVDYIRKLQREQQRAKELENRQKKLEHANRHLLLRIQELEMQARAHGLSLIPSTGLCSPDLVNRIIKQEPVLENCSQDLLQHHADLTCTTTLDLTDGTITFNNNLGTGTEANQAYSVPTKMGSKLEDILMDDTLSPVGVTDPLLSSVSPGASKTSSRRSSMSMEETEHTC

[9] = target: T3, Zinc finger protein mex-5 (Caenorhabditis elegans, UniProt Q9XUB2); experiment: MEX-5/TCR-2 RNA interaction inhibitors, dose response, biochemical, C. elegans, fluorescence polarization (AID 1960)
T3 sequence (Q9XUB2 whole entry): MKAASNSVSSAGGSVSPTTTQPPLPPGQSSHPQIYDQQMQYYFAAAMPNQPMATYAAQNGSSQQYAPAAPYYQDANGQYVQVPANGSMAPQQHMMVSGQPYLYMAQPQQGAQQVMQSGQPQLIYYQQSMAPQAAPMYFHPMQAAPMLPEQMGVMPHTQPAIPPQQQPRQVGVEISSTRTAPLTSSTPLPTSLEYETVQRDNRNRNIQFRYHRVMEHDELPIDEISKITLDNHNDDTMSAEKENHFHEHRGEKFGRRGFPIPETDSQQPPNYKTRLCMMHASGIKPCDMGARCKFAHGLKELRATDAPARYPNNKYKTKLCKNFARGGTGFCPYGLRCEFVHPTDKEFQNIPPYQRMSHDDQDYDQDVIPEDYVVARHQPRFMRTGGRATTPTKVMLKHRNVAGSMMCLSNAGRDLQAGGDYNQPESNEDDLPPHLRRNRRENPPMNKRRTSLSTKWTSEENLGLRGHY

Estrogen receptor = Estrogen receptor (Homo sapiens, UniProt P03372);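 further: potency for inhibiting coactivator peptide recruitment to the receptor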
Sequence of Estrogen receptor (P03372 whole entry): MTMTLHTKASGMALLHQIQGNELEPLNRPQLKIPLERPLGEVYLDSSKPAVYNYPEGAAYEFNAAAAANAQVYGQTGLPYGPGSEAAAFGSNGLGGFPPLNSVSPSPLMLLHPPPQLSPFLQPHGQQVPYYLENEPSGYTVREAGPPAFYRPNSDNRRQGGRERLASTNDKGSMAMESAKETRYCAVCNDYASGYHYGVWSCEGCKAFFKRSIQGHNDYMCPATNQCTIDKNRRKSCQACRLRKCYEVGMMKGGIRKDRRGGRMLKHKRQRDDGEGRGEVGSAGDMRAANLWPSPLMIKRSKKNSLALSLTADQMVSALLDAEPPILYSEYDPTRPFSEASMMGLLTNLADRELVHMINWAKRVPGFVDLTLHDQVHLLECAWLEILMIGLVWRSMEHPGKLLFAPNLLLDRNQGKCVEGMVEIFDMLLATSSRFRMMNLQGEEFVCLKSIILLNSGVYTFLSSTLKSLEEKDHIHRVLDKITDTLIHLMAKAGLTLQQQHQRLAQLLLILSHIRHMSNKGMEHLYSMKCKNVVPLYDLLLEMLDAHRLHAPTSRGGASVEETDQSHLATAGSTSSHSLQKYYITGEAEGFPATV

[10] = target: Inward rectifier potassium channel 2 (Mus musculus, UniProt P35561); experiment: Manual electrophysiological patch clamp assay for SAR compounds that inhibit/block inward-rectifying potassium ion channel Kir2.1. [Related pubchem assays: 1843 (Summary assay for Kir2.1 inhibitor assays.), 1672 (Primary HTS of 305616 compounds where 2592 were identified as active.)]; assay type: functional
Sequence of Inward rectifier potassium channel 2 (P35561 whole entry): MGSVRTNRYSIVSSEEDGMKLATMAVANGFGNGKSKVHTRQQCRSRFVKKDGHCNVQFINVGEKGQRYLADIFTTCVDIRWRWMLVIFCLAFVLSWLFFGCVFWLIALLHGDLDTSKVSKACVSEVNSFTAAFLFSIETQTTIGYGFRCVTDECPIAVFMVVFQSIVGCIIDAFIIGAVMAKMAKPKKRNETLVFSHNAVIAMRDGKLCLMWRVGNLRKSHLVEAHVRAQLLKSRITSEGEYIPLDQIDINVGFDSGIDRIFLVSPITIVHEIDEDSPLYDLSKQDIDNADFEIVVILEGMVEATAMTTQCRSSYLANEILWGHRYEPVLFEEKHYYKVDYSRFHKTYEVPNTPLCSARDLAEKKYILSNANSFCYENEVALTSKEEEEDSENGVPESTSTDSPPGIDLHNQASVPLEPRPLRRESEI

Aspartyl aminopeptidase = Aspartyl aminopeptidase (Plasmodium falciparum 3D7, UniProt Q8I2J3); experiment: Counterscreen for inhibitors of M1 and M17 aminopeptidases: QFRET-based biochemical high throughput dose response assay for inhibitors of the Plasmodium falciparum M18 Aspartyl Aminopeptidase (PFM18AAP). [Related PubChem assays: 1619 (Screening assay (M17LAP inhibitors).), 1445 (Screening assay (M1AAP inhibitors).)]
Sequence of Aspartyl aminopeptidase (Q8I2J3 whole entry): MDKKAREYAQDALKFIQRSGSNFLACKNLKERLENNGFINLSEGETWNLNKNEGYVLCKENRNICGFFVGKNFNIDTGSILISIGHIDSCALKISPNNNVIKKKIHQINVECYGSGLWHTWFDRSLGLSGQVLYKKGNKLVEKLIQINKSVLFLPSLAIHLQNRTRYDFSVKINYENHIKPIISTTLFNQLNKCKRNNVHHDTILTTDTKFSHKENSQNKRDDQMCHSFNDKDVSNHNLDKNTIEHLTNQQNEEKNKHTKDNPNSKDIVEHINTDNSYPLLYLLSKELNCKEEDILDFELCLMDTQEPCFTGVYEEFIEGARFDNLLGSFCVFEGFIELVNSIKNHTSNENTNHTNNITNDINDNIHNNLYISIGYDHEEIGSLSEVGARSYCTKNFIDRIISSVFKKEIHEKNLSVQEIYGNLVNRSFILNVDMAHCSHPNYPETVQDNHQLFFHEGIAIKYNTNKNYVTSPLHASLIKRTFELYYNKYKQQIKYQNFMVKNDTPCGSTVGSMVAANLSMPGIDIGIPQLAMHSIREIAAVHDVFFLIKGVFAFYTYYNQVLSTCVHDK

[11] = target: T4, Long-chain-fatty-acid--AMP ligase FadD28 (Mycobacterium tuberculosis, UniProt P9WQ59); experiment: Fluorescence polarization aasay to screen for inhibitors that compete for the binding of FadD28 to a bisubstrate Measured in Biochemical System Using Plate Reader - 2147-01_Inhibitor_Dose_CherryPick_Activity.; assay type: functional, Mycobacterium tuberculosis H37Rv
T4 sequence (P9WQ59 whole entry): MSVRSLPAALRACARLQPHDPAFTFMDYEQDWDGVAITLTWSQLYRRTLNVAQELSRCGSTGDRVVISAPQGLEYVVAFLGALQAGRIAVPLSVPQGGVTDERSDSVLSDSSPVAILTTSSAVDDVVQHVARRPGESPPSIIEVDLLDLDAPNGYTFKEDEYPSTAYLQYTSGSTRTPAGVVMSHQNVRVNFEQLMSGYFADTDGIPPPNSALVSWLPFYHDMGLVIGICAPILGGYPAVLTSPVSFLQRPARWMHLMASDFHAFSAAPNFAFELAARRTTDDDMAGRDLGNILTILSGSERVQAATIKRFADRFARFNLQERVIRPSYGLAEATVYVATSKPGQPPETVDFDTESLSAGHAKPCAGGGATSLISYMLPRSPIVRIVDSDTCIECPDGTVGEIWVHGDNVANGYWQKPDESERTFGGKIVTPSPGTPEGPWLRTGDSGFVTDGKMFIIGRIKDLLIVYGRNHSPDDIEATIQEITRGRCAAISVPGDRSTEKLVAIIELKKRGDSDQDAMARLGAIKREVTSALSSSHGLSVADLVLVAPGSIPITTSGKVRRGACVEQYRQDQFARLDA

Leucine aminopeptidase = target: T5, Leucine aminopeptidase (Plasmodium falciparum 3D7, UniProt Q8IL11); experiment: P. falciparum M17LAP inhibitors, primary screen, biochemical, fluorogenic H-Leu-NHMec substrate, 1536-well (AID 1619); assay type: functional
T5 sequence (Q8IL11 whole entry): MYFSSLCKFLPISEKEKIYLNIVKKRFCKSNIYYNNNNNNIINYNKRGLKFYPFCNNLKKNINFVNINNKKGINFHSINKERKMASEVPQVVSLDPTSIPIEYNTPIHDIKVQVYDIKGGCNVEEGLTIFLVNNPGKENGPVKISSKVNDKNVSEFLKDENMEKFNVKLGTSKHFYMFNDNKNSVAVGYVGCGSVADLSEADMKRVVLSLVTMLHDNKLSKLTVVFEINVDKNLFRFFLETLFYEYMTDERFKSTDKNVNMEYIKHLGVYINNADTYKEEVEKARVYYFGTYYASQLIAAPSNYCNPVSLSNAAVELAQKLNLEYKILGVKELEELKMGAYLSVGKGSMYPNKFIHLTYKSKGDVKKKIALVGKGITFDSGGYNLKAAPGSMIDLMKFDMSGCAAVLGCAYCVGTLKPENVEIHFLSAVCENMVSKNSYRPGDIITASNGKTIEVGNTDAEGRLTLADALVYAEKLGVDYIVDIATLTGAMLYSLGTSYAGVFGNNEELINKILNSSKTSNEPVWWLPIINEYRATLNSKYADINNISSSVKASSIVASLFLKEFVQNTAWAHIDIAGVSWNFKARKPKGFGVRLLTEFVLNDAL

Procathepsin L = Procathepsin L (Homo sapiens, UniProt P07711); experiment: cathepsin L inhibitors, dose response, counter-screen for M1/M17 aminopeptidase inhibitor project, biochemical, QFRET, 1536-well (AID 2214)
Sequence of Procathepsin L (P07711 whole entry): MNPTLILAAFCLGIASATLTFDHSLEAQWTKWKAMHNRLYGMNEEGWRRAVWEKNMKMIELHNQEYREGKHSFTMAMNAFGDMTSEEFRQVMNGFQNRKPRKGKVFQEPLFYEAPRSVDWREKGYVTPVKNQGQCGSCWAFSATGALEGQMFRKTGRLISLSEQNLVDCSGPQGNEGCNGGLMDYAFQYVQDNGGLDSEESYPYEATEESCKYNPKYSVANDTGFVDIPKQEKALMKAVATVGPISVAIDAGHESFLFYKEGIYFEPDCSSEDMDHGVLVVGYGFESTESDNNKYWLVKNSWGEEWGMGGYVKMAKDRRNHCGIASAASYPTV

Estrogen receptor beta [12] = target: T6, Estrogen receptor beta (Homo sapiens, UniProt Q92731);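 further: recombinant ER-beta bound to coactivator SRC1 peptide in presence of estradiol agonist; inhibitors block coactivator peptide binding and lower the FRET signal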
T6 sequence (Q92731 whole entry): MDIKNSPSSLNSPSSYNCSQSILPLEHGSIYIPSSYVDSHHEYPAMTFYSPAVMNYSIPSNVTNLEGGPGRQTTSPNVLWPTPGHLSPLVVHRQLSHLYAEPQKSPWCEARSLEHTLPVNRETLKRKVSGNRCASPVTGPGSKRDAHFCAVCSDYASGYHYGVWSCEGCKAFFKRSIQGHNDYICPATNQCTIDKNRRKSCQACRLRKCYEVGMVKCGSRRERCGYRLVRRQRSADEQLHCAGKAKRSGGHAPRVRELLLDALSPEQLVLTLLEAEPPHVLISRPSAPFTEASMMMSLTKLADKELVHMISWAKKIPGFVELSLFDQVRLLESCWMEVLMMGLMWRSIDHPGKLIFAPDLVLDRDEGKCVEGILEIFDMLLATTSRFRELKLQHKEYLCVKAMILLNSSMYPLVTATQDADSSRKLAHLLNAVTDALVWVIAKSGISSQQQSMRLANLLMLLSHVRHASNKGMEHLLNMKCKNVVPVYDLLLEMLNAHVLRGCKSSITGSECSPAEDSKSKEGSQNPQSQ

Bcl-2-like protein 10 = target: T7, Bcl-2-like protein 10 (Homo sapiens, UniProt Q9HD36); experiment: displacers of TR3 peptide from Bcl-B, primary screen, selectivity assay for Bfl-1 inhibitor project, biochemical, fluorescence polarization, FITC-TR3 peptide (AID 748);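 further: fluorescence polarization from a fluorescein-labelled TR3 peptide binding purified Bcl-B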
T7 sequence (Q9HD36 whole entry): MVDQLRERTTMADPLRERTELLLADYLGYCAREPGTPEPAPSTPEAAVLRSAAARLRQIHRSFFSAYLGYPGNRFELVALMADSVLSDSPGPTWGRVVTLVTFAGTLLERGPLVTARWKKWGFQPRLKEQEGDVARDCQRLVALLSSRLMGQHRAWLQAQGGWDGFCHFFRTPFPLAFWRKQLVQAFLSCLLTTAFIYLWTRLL

Estrogen receptor beta [13] = target: T6, Estrogen receptor beta; experiment: ERβ–SRC-3 coactivator interaction inhibitors, confirmation, orthogonal assay, biochemical, ELISA, streptavidin-HRP readout (AID 1060)
NADPH oxidase 1 = NADPH oxidase 1 (Homo sapiens, UniProt Q9Y5S8); assay type: functional, cell-based;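 further: Cell-based assay with luminescence read-out, IC50 derived from inhibitor dose-response curves; intracellular ROS from endogenous NOX1 in intact HT29 colon cancer cells; potency of inhibitors that lower the ROS luminescence signal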
Sequence of NADPH oxidase 1 (Q9Y5S8 whole entry): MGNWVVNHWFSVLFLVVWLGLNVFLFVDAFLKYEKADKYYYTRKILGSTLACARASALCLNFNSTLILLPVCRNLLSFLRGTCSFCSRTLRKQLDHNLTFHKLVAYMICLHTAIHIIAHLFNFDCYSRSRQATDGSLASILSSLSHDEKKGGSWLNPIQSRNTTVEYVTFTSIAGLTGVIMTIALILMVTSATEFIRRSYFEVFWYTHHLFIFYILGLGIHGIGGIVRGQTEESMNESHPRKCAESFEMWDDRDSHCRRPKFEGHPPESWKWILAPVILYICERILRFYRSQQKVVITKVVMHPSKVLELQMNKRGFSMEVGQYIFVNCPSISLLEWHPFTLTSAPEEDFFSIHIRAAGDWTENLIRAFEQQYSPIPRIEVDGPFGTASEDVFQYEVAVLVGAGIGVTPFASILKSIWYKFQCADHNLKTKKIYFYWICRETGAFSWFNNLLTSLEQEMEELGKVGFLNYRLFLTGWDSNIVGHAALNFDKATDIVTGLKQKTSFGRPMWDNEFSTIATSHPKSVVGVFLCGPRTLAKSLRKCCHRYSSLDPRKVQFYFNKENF

**Q.** Which results are given for CCOc1ccc2nc(NC3=NC(=O)CC(c4ccc(OC)cc4)N3)nc(C)c2c1 (stereo unspecified)?
**A.** IC50 (Prothrombin): 77.6 µM (active); IC50 [1]: > 100 µM (inactive); EC50 [2]: 9.86 µM (active); IC50 [3]: 17.6 µM (active); EC50 [4]: 7.4 µM (active); IC50 [5]: 22 µM (active); IC50 [6]: 5.85 µM (active); AC50 [7]: 8.71 µM (active); AC50 (A-375): 27.7 µM (active); AC50 [8]: 9.49 µM (active)

**Q.** What does the source list for Cc1cc(/C=C2/C(=O)NC(=O)N(c3ccccc3)C2=O)c(C)n1-c1ccc(F)cc1?
**A.** EC50 [9]: 77.3 µM (active); IC50 (Estrogen receptor): > 50 µM (not active)

**Q.** For COc1ccc(CNCc2ccc(OC(F)(F)F)cc2)cc1, which IC50 [10] is on record?
**A.** 1.64 µM (active)

**Q.** What does the source list for CCOc1ccc(NC(=O)C2C(C(=O)O)C3(Cl)C(Cl)=C(Cl)C2(Cl)C3(Cl)Cl)cc1 (stereo unspecified)?
**A.** IC50 (Aspartyl aminopeptidase): > 73.5 µM (not active); AC50 [11]: 11.5 µM (active); IC50 (Leucine aminopeptidase): < 1 µM (active); IC50 (Procathepsin L): > 59.6 µM (not active)

**Q.** Which IC50 (Estrogen receptor beta [12]) does the source give for O=C(COC(=O)c1cccs1)NCc1ccco1 here?
**A.** > 50 µM (not active)

**Q.** And the IC50 (Bcl-2-like protein 10)?
**A.** 85.1 µM (inactive)

**Q.** And the IC50 (Estrogen receptor beta [13])?
**A.** 8.95 µM (not active)

**Q.** For CC(O)c1ccc2c(c1)Nc1ccccc1S2 (stereo unspecified), which IC50 (NADPH oxidase 1) is on record?
**A.** 0.363 µM (active)
